Measured values from PMC8224775, “Five Tetramic Acid Derivatives Isolated from the Iranian Fungus Colpoma quercinum CCTU A372” (Biomolecules, 2021).
≈ marks a conversion by molar mass, not a printed value. Read-outs that look alike come from different tables or passages of the source.

Key:
Assay in all cases: Antimicrobial serial dilution assay (MIC)
Type in all cases: cell-based
[1] = test system: Acinetobacter baumanii DSM 30008; conditions: serial dilution 67 to 0.5 µg/mL, overnight
Procedure: (§1) Antimicrobial activity was determined by our established protocol, according to Becker et al.. In general, all of the pure compounds were dissolved in MeOH with a concentration of 1 mg/mL. Assessment of the antimicrobial activity was determined using the serial dilution assay method to calculate the minimum inhibitory concentration (MIC). In this method, the compounds were diluted in a range between 67 and 0.5 µg/mL in 96 well-plate and incubated with the test organism overnight. The next day, growth of the test organisms was visually observed, and MIC was determined in the lowest concentration where a clear zone (no growth of test organism) was observed. In our attempt for novel anti-infective compounds, an established standard protocol using various organisms representing a broad spectrum of pathogens of clinical interest, as well as sensitive indicator strains, was used (bacteria: Bacillus subtilis DSM 10, Staphylococcus aureus DSM 346, Acinetobacter baumanii DSM 30008, Chromobacterium violaceum DSM 30191, Escherichia coli DSM 1116 and Pseudomonas aeruginosa PA14; mycobacteria: Mycobacterium smegmatis ATCC 700084 and fungi: Candida albicans DSM 1665, Schizosaccharomyces pombe DSM 70572, Mucor hiemalis DSM 2656, Wickerhamomyces anomala DSM 6766 and Rhodotorula glutinis DSM 10134). Methanol as a solvent to dissolve the pure compounds was used as the negative control. Oxytetracycline, ciprofloxacin, gentamycin, and kanamycin were used as positive controls against bacteria, whereas nystatin was used against fungi. A detailed experimental procedure can be found in the SI.
(§2) Protocol: Antimicrobial Activity Assay
(§3) The assay was conducted as a minimum inhibitory concentration (MIC) assay in 96-well round- bottom microtiter plates using the parameters summarized in Table S1 and as already described in [S1]. Stocks of the test organisms were generated by growing the organisms overnight in 50 mL shaking flasks filled with 25 mL of the growth medium at 140r p m ( media and temperatures see Table S1). If the organisms were well grown the next day, which was checked by the occurrence of an optical density (OD) […] of the suspension (OD600 nm for bacteria, OD548 nm for fungi and M. smegmatis), aliquots of these were stored in 1.5 mL reaction tubes in a freezer at −80 °C for up to 12 months. Upon use, aliquots were unthawed and the OD of the suspension measured and adjusted by diluting with the respective growth medium. OD600 nm was adjusted to 0.01 and OD548 nm to 0.1. Subsequently, 150 μ L of the adj usted suspensions were added to all wells of a 96-well microtiter plate (one test organism per plate). In row A, additional 130 μ L of suspensions plus 20 μ L of the test compounds (1 mg/mL) and the controls (one compound/column) were added. MeOH was used as negative controls, while different positive controls (references) were used for the test organisms (see Table S1). Then, starting from row A, 150 μ L of t he suspension were transferred to the next row, the contents thoroughly mixed, and 150 μ L transferred to the following row. The remaining 150 μ L after row H were discarded. […]
(§4) of the test compounds, ranging from 66.7 μg/mL in row A to 0.52 μ g/mL in row H. The microtiter plates were then incubated overnight on a microplate shaker at 800 rpm at 30 or 37 °C (see Table S1) and were visually evaluated the next day. The MIC is defined as the lowest concentration where no growth of the test organism (clear zone) was observed. A lower MIC thus corresponds to a higher antimicrobial activity of the test compound.
(§5) Table S1: MIC assay experiment parameters test organism strain No growth incubation positive control […]
(§6) Candidaa lbicans DSM1665 MYC3 30 nystatin 1.0mg/ mL
(§7) Schizosaccharomyces DSM70572 MYC3 30 nystatin 1.0mg/ mL
(§8) Mucor hiemalis DSM2656 MYC3 30 nystatin 1.0mg/ mL
(§9) Wickerhamomyces DSM6766 MYC3 30 nystatin 1.0mg/ mL
(§10) Rhodotorula glutinis DSM10134 MYC3 30 nystatin 1.0mg/ mL
(§11) 1 MHB: Müller-Hinton Broth (SN X927.1, CarlRoth GmbH, Karlsruhe, Germany) […]

Mucor hiemalis DSM 2656 = conditions: overnight
Procedure: as §1, §2, §3, §4, §5, §6, §7, §8, §9, §10, §11

Pichia anomala DSM 6766 = conditions: serial dilution 67 to 0.5 µg/mL, overnight
Procedure: as §1, §2, §3, §4, §5, §6, §7, §8, §9, §10, §11

[2] = test system: Rhodotorula glutinis DSM 10134; conditions: serial dilution 67 to 0.5 µg/mL, overnight
Procedure: as §1, §2, §3, §4, §5, §6, §7, §8, §9, §10, §11

[3] = serial dilution 67 to 0.5 µg/mL

SMILES | MIC [1] | MIC (Mucor hiemalis DSM 2656; [3]) | MIC (Pichia anomala DSM 6766) | MIC [2] | MIC (Mucor hiemalis DSM 2656; DSM2656, serial dilution 67 to 0.5 µg/mL, read-out: MIC) [µg/mL]
CC(=O)OC(C(=O)O)C(C)C1C(C)=CC2CC(C)CCC2C1(C)C(O)=C1C(=O)C(C)N(C)C1=O (centres unmarked) [compound 1, Colposetin A] | n.i | n.i | n.i | n.i | 
CCC(C(=O)O)C1C(C)=CC2CC(C)CCC2C1(C)C(O)=C1C(=O)C(C)N(C)C1=O (centres unmarked) [compound 2, Colposetin B] | n.i |  | n.i | n.i | 67 (≈ 160 µM)
CC1=CC2CC(C)CCC2C2(C)C(=O)OC(C(=O)O)C(C)C12 (centres unmarked) [compound 3, Colposetin C] | n.i | n.i | n.i | n.i | 
CC(C=CCC(C)CCC=C(C)C(=O)C1=C(O)C(C)N(C)C1=O)=CC(C)C(O)C(=O)O (centres unmarked) [compound 4, Colpomenoic acid A] | n.i | n.i | n.i | n.i | 
CC(C=CCC(C)C=CC=C(C)C(=O)C1=C(O)C(C)N(C)C1=O)=CC(C)C(O)C(=O)O (centres unmarked) [compound 5, Colpomenoic acid B] | n.i | n.i | n.i | n.i | 
